In patent US9481670B2, “Triazine compounds” (Sphaera Pharma PTE. Ltd., priority 2011, dated 2016):

Tested on: not listed separately
Experiment: Pharmacokinetic study, oral dosing, plasma concentration by LC-MS/MS
Type: in vivo
Conditions: female swiss mice, fasted overnight, oral 3 mg/kg in PEG 400, plasma
Procedure: For pharmacokinetic study female swiss mice were used. The swiss mice weighing 25-30 g, fasted overnight, were orally dosed at 3 mg/kg body weight of compound in PEG 400. Blood samples (40 μl) were collected from each mouse by retro-orbital bleeding at 0, 0.16, 0.5, 1, 2, 4, 6 and 8 h after dosing into the tubes containing heparin as an anticoagulant. The samples were stored in ice and within 1 h after collection samples were centrifuged at 10000 RPM at 4° C. Plasma was collected and stored at −80° C. until analyis. The concentration of compounds in plasma were determined by liquid chromatography-tandem mass spectrometry (LC-MS/MS).
The protein precipitation method was used to extract the compounds. Acetonitrile was added to plasma, vortexed and centrifuged at 10000 RPM at 4° C. The supenatent was collected and injected onto the column. A CTC HTC PAL auto sampler (LEAP Technologies) linked to a Shimadzu SCL-10A VP HTC controller with LC-10AD pumps (Shimadzu), coupled with a Sciex API 3000 triple quadrupole mass spectrometer were used for the LC-MS/MS analysis. Some compounds as per the present invention are represented in the table below, were tested and their PK values are reported in Table 2.

AUC [nM-hr]	Cmax [nM]	Elimination t1/2 [h]	Tmax [h]	Compound
1618	535	3.15	0.83	CN(C)C(=O)N1CCC(Oc2nc(-c3cccc4[nH]ncc34)nc(N3CCOCC3)n2)CC1 [Compound 1126, 4-14-{[4-1-(1H-indazol-4-yl)-6-5-(morpholin-4-yl)-1,3,5-triazin-2-yl]oxy}-N,N-dimethylpiperidine-1-carboxamide]
5849	1660	4.34	1.33	CN(C)C(=O)[C@H]1CC[C@H](Oc2nc(-c3cccc4[nH]ncc34)nc(N3CCOCC3)n2)CC1 [Compound 1144, (1r,4r)-4-21-{[4-1-(1H-indazol-4-yl)-6-5-(morpholin-4-yl)-1,3,5-triazin-2-yl]oxy}-N,N-dimethylcyclohexane-1-carboxamide]

Same assay, conditions: mouse; female swiss mice, fasted overnight, oral 3 mg/kg in PEG 400, plasma

Cmax [nM]	Compound
1240	CNC(=O)c1ccc(Oc2nc(-c3cccc4[nH]ncc34)nc(N3CCOCC3)n2)cc1 [Compound 1113, 4-14-{[4-1-(1H-indazol-4-yl)-6-5-(morpholin-4-yl)-1,3,5-triazin-2-yl]oxy}-N-methylbenzamide]

Same assay, conditions: mouse; female swiss mice, fasted overnight, oral 3 mg/kg in PEG 400, plasma; read-out: AUC

AUC [µM·h]	Compound
5.25	CNC(=O)c1ccc(Oc2nc(-c3cccc4[nH]ncc34)nc(N3CCOCC3)n2)cc1 [Compound 1113, 4-14-{[4-1-(1H-indazol-4-yl)-6-5-(morpholin-4-yl)-1,3,5-triazin-2-yl]oxy}-N-methylbenzamide]

Same assay, conditions: mouse; female swiss mice, fasted overnight, oral 3 mg/kg in PEG 400, plasma; read-out: Elimination t1/2 (converted)

half-life [h]	Compound
4.86	CNC(=O)c1ccc(Oc2nc(-c3cccc4[nH]ncc34)nc(N3CCOCC3)n2)cc1 [Compound 1113, 4-14-{[4-1-(1H-indazol-4-yl)-6-5-(morpholin-4-yl)-1,3,5-triazin-2-yl]oxy}-N-methylbenzamide]

Same assay, conditions: mouse; female swiss mice, fasted overnight, oral 3 mg/kg in PEG 400, plasma; read-out: Tmax

Tmax [h]	Compound
1	CNC(=O)c1ccc(Oc2nc(-c3cccc4[nH]ncc34)nc(N3CCOCC3)n2)cc1 [Compound 1113, 4-14-{[4-1-(1H-indazol-4-yl)-6-5-(morpholin-4-yl)-1,3,5-triazin-2-yl]oxy}-N-methylbenzamide]

Molecular target: T1, PI3K alpha (Homo sapiens, UniProt P42336)
T1 construct: purchased Millipore Upstate
T1 sequence (P42336 whole entry): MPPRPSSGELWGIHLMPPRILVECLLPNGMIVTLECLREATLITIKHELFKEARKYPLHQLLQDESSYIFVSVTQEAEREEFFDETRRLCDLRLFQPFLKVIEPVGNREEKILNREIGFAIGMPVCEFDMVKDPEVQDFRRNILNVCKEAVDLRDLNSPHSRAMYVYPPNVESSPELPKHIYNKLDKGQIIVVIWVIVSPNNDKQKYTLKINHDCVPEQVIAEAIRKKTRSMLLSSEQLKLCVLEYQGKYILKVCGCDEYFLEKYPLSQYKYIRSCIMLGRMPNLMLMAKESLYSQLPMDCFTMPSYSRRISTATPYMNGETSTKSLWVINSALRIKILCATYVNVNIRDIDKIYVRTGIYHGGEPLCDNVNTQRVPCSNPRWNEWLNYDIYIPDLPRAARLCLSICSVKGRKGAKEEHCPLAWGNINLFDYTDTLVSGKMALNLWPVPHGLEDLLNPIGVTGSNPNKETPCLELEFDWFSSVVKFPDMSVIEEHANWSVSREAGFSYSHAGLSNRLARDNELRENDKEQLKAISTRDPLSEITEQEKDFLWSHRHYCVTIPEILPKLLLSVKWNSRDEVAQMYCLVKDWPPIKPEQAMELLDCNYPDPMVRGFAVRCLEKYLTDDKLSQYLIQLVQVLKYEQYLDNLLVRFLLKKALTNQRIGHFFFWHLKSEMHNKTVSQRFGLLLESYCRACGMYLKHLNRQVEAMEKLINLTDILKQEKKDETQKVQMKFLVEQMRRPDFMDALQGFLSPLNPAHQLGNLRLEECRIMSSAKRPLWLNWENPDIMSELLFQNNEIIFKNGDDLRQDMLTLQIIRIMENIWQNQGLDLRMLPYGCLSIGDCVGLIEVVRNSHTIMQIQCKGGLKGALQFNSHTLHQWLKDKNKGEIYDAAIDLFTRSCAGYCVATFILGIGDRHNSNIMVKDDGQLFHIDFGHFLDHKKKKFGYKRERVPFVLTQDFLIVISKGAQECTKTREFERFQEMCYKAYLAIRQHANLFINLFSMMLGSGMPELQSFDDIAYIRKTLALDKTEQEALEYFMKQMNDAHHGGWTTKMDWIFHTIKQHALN
T1 sequence (P27986 whole entry partner): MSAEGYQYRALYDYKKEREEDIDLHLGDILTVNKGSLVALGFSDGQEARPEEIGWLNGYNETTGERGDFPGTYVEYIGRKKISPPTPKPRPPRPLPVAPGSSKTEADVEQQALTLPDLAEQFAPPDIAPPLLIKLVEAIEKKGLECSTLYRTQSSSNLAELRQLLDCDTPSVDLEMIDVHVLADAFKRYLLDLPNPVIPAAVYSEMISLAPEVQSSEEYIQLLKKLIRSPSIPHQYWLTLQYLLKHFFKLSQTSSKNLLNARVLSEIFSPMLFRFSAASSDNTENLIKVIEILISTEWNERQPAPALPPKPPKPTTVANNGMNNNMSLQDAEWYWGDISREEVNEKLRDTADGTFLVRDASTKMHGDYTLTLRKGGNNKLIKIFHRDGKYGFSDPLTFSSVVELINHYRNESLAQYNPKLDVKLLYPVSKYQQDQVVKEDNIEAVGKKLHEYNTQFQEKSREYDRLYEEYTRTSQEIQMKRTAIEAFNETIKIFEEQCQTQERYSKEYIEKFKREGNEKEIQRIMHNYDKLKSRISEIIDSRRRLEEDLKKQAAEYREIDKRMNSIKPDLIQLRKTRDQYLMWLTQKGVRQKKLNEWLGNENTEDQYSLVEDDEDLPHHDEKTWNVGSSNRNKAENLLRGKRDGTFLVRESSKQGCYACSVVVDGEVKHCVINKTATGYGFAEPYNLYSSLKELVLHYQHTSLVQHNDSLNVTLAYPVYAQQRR
Experiment: P110 Alpha TR-FRET Assay (PI3K alpha kinase assay, HTRF Transcreener ADP Assay)
Type: biochemical
Conditions: PI3K (WT)
In short: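 HTRF Transcreener ADP read-out of ADP formed by PI3K (50 ng enzyme) in 50 mM HEPES pH 7.5, 5 mM MgCl2, 1 mM DTT, 30 μM Na3VO4. Compound preincubated with enzyme 20 min; reaction started with 10 μM ATP and 5 μM PIP2, run 20 min, then ADP-d2/anti-ADP cryptate detection for 1 h.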

Compound	IC50 [µM]
CN(C)C(=O)CCNc1nc(-c2cccc3[nH]ncc23)nc(N2CCOCC2)n1 [Compound 1223, 3-((4-(1H-indazol-4-yl)-6-morpholino-1,3,5-triazin-2-yl)amino)-N,N-dimethylpropanamide]	< 5
c1cc(-c2nc(-c3cccc4[nH]ncc34)nc(N3CCOCC3)n2)c2cn[nH]c2c1 [Compound 1224, 4-12-[4-3-(1H-indazol-4-yl)-6-5-(morpholin-4-yl)-1,3,5-triazin-2-yl]-1H-indazole]	< 5
c1cc(-c2nc(NC3CCOCC3)nc(N3CCOCC3)n2)c2cn[nH]c2c1 [Compound 1225, 4-(1H-indazol-4-yl)-6-morpholino-N-(tetrahydro-2H-pyran-4-yl)-1,3,5-triazin-2-amine]	< 5
Cc1nc(-c2cccc3[nH]ncc23)nc(N2CCOCC2)n1 [Compound 1226, 4-7-[4-3-methyl-6-5-(morpholin-4-yl)-1,3,5-triazin-2-yl]-1H-indazole]	< 5
O=C(O)CCNc1nc(-c2cccc3[nH]ncc23)nc(N2CCOCC2)n1 [Compound 1227, 3-((4-(1H-indazol-4-yl)-6-morpholino-1,3,5-triazin-2-yl)amino)propanoic acid]	< 5
CN1CCN(c2nc(-c3cccc4[nH]ncc34)nc(N3CCOCC3)n2)CC1 [Compound 1228, 4-18-[4-3-(4-15-methylpiperazin-1-yl)-6-5-(morpholin-4-yl)-1,3,5-triazin-2-yl]-1H-indazole]	< 5
c1cc(-c2nc(N3CCNCC3)nc(N3CCOCC3)n2)c2cn[nH]c2c1 [Compound 1229, 4-17-[4-5-(morpholin-4-yl)-6-3-(piperazin-1-yl)-1,3,5-triazin-2-yl]-1H-indazole]	< 5
O=C1CN(c2nc(-c3cccc4[nH]ncc34)nc(N3CCOCC3)n2)CCN1 [Compound 1230, 4-7-[4-1-(1H-indazol-4-yl)-6-5-(morpholin-4-yl)-1,3,5-triazin-2-yl]piperazin-2-one]	< 5
Nc1nc(-c2cccc3[nH]ncc23)nc(N2CCOCC2)n1 [Compound 1231, 4-2-(1H-indazol-4-yl)-6-0-(morpholin-4-yl)-1,3,5-triazin-2-amine]	> 5
CC(C)(CO)Nc1nc(-c2cccc3[nH]ncc23)nc(N2CCOCC2)n1 [Compound 1232, 2-((4-(1H-indazol-4-yl)-6-morpholino-1,3,5-triazin-2-yl)amino)-2-methylpropan-1-ol]	< 5
c1cc(-c2nc(N3CCOCC3)nc(N3CCOCC3)n2)c2cn[nH]c2c1 [Compound 1233, 4-8-[4-3,6-5-bis(morpholin-4-yl)-1,3,5-triazin-2-yl]-1H-indazole]	< 5
CC(Nc1nc(-c2cccc3[nH]ncc23)nc(N2CCOCC2)n1)C(N)=O (stereo not shown) [Compound 1234, 2-((4-(1H-indazol-4-yl)-6-morpholino-1,3,5-triazin-2-yl)amino)propanamide]	< 5
CC(C)(Nc1nc(-c2cccc3[nH]ncc23)nc(N2CCOCC2)n1)C(=O)O [Compound 1235, 2-((4-(1H-indazol-4-yl)-6-morpholino-1,3,5-triazin-2-yl)amino)-2-methylpropanoic acid]	< 5
O=C(O)CNc1nc(-c2cccc3[nH]ncc23)nc(N2CCOCC2)n1 [Compound 1236, 2-((4-(1H-indazol-4-yl)-6-morpholino-1,3,5-triazin-2-yl)amino)acetic acid]	< 5
N-[(4E)-1-8-[4-1-(1-21-{4-24-[(4E)-4-37-(hydroxyimino)azepan-1-yl]-6-26-(morpholin-4-yl)-1,3,5-triazin-2-yl}-1H-indazol-4-yl)-6-5-(morpholin-4-yl)-1,3,5-triazin-2-yl]azepan-4-ylidene]hydroxylamine [Compound 1123]	< 5

The remaining lines, values ahead:

IC50 [µM]	Compound
< 5	CN(C)C(=O)N1CCC(Oc2nc(-c3cccc4[nH]ncc34)nc(N3CCOCC3)n2)CC1 [Compound 1126, 4-14-{[4-1-(1H-indazol-4-yl)-6-5-(morpholin-4-yl)-1,3,5-triazin-2-yl]oxy}-N,N-dimethylpiperidine-1-carboxamide]
< 5	CN(C)C(=O)[C@H]1CC[C@H](Oc2nc(-c3cccc4[nH]ncc34)nc(N3CCOCC3)n2)CC1 [Compound 1144, (1r,4r)-4-21-{[4-1-(1H-indazol-4-yl)-6-5-(morpholin-4-yl)-1,3,5-triazin-2-yl]oxy}-N,N-dimethylcyclohexane-1-carboxamide]
< 5	CN(C)C(=O)C(CCS(C)(=O)=O)Nc1nc(-c2cccc3[nH]ncc23)nc(N2CCOCC2)n1 (stereo not shown) [Compound 1210, 2-((4-(1H-indazol-4-yl)-6-morpholino-1,3,5-triazin-2-yl)amino)-N,N-dimethyl-4-(methylsulfonyl)butanamide]
< 5	CS(=O)(=O)N1CCN(c2nc(-c3cccc4[nH]ncc34)nc(N3CCOCC3)n2)CC1 [Compound 1211, 4-7-[4-3-(4-16-methanesulfonylpiperazin-1-yl)-6-5-(morpholin-4-yl)-1,3,5-triazin-2-yl]-1H-indazole]
< 5	Oc1nc(-c2cccc3[nH]ncc23)nc(N2CCOCC2)n1 [Compound 1212, 4-1-(1H-indazol-4-yl)-6-5-(morpholin-4-yl)-1,3,5-triazin-2-ol]
< 5	c1cc(-c2nc(N3CCCNCC3)nc(N3CCOCC3)n2)c2cn[nH]c2c1 [Compound 1213, 4-12-[4-3-(1,4-diazepan-1-yl)-6-5-(morpholin-4-yl)-1,3,5-triazin-2-yl]-1H-indazole]
< 5	CN(C)C(=O)[C@H]1CC[C@H](Nc2nc(-c3cccc4[nH]ncc34)nc(N3CCOCC3)n2)CC1 [Compound 1214, (1r,4r)-4-((4-(1H-indazol-4-yl)-6-morpholino-1,3,5-triazin-2-yl)amino)-N,N-dimethylcyclohexanecarboxamide]
< 5	CNC(=O)[C@H]1CC[C@@H](Nc2nc(-c3cccc4[nH]ncc34)nc(N3CCOCC3)n2)CC1 [Compound 1215, 4-((4-(1H-indazol-4-yl)-6-morpholino-1,3,5-triazin-2-yl)amino)-N-methylcyclohexanecarboxamide]
< 5	CN(C)C(=O)[C@H]1CC[C@@H](Nc2nc(-c3cccc4[nH]ncc34)nc(N3CCOCC3)n2)CC1 [Compound 1216, 4-((4-(1H-indazol-4-yl)-6-morpholino-1,3,5-triazin-2-yl)amino)-N,N-dimethylcyclohexanecarboxamide]
< 5	CN(C)C(=O)[C@H]1CCCN1c1nc(-c2cccc3[nH]ncc23)nc(N2CCOCC2)n1 [Compound 1217, (2R)-1-7-[4-1-(1H-indazol-4-yl)-6-5-(morpholin-4-yl)-1,3,5-triazin-2-yl]-N,N-dimethylpyrrolidine-2-carboxamide]
< 5	CNC(=O)N1CCN(c2nc(-c3cccc4[nH]ncc34)nc(N3CCOCC3)n2)CC1 [Compound 1218, 4-7-[4-1-(1H-indazol-4-yl)-6-5-(morpholin-4-yl)-1,3,5-triazin-2-yl]-N-methylpiperazine-1-carboxamide]
< 5	c1ccc(Nc2nc(-c3cccc4[nH]ncc34)nc(N3CCOCC3)n2)cc1 [Compound 1219, 4-(1H-indazol-4-yl)-6-morpholino-N-phenyl-1,3,5-triazin-2-amine]
< 5	OC1CCN(c2nc(-c3cccc4[nH]ncc34)nc(N3CCOCC3)n2)CC1 [Compound 1220, 1-8-[4-1-(1H-indazol-4-yl)-6-5-(morpholin-4-yl)-1,3,5-triazin-2-yl]piperidin-4-ol]
< 5	O=C1CCN(c2nc(-c3cccc4[nH]ncc34)nc(N3CCOCC3)n2)CC1 [Compound 1221, 1-8-[4-1-(1H-indazol-4-yl)-6-5-(morpholin-4-yl)-1,3,5-triazin-2-yl]piperidin-4-one]
< 5	NC1CCN(c2nc(-c3cccc4[nH]ncc34)nc(N3CCOCC3)n2)CC1 [Compound 1222, 1-8-[4-1-(1H-indazol-4-yl)-6-5-(morpholin-4-yl)-1,3,5-triazin-2-yl]piperidin-4-amine]

Tested on: human tumor xenografts
Experiment: not given
Conditions: mouse, in vivo; cited from earlier work

Compound	tolerability
O=c1cc(N2CCOCC2)oc2c(-c3ccccc3)cccc12 [LY294002]	well-tolerated
